Patent publication US11453700B2, “Peptide having activities of skin whitening and uses thereof” (CAREGEN CO., LTD., priority 2019, dated 2022)

Legend:
[1] = system: B16F10 cells; assay: Inhibitory effect on melanin production in α-MSH-stimulated B16F10 cells; format: cell-based, mouse; conditions: 200 ng/mL α-MSH, peptide 10, 50, 100 or 200 μM, 72 hours, FIG. 1
Experimental: A mouse melanoma cell B16F10 was seeded in a 6-well plate at a density of 5×10^4 cells/well, followed by incubation for 16 hours. Thereafter, the culture medium was replaced by a medium supplemented with 2% (v/v) serum, and then 200 ng/mL of α-melanocyte-stimulating hormones (α-MSH) was added thereto to stimulate melanin production, together with each peptide of an amino acid sequence of SEQ ID NO: 1, at a concentration of 10 μM, 50 μM, 100 μM, or 200 μM, respectively, followed by incubation for 72 hours. Thereafter, the incubated cells were dissolved in 1 N NaOH, and absorbance at 450 nm was measured. In addition, an untreated group (Con) was used as a control, and only an α-MSH-treated group as a negative control and 200 μM or 500 μM of arbutin-, which is a known skin-whitening agent, and α-MSH-treated group as a positive control were used.
From absorbance at 450 nm, the content of melanin (%) produced by B16F10 cells was determined.

[2] = target: T1, tyrosinase (Mus musculus, UniProt P11344); assay: Inhibitory effect on tyrosinase activity in α-MSH-stimulated B16F10 cells (L-DOPA, cell lysate); format: cell-based; conditions: 200 ng/mL α-MSH, peptide 1-160 μM, 72 hours, FIG. 2
T1 construct: the cells were lysed by adding 0.1 M sodium phosphate buffer (pH 6.8, lysis buffer) containing 1% (v/v) triton X-100; endogenous in cells; host or cells: B16F10 mouse melanoma cells, stimulated with alpha-MSH
T1 sequence (P11344 19-533): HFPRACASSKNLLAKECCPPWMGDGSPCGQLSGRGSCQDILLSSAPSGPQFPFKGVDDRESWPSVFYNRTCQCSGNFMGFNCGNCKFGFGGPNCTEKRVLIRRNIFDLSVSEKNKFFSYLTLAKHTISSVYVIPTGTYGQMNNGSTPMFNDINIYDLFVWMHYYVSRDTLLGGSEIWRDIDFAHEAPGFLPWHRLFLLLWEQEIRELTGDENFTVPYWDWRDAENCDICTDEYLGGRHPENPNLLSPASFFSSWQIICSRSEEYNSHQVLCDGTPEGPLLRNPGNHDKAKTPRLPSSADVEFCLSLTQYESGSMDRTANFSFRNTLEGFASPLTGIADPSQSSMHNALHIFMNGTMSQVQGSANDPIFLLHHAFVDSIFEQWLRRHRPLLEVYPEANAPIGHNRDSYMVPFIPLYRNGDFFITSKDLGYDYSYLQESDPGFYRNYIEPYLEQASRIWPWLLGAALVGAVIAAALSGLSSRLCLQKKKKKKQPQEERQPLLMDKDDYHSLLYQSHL
Experimental: In detail, a mouse melanoma cell B16F10 was seeded in a 6-well plate at a density of 5×10^4 cells/well, followed by incubation for 16 hours. Thereafter, the culture medium was replaced by a medium supplemented with 2% (v/v) serum, and then 200 ng/mL of α-MSH was added thereto. Together therewith, the peptide composed of the amino acid sequence of SEQ ID NO: 1 was added at a concentration of 1 μM, 10 μM, 20 μM, 40 μM, 60 μM, 80 μM or 160 μM, respectively, followed by incubation for 72 hours. The 6-well plate was placed on ice, and then washed with cold PBS twice. Thereafter, the cells were lysed by adding 0.1 M sodium phosphate buffer (pH 6.8, lysis buffer) containing 1% (v/v) triton X-100. Thereafter, the cells in the well plate were scraped using a scraper, and collected in a 1.5 mL tube. The collected cells were vortexed, and centrifuged at 15,000 rpm for 10 minutes to obtain a supernatant. Thereafter, proteins in the supernatant were quantified to adjust the protein content at a predetermined amount. A buffer was added thereto, and 90 μL total of the sample was dispensed in a 96-well plate.
Thereafter, 20 μL of 10 mM L-DOPA was added to each sample, and incubated at 37° C. for 1 hour. Then, absorbance at 475 nm was measured. […] From absorbance at […], the tyrosinase activity (fold) was determined.

[3] = system: Rab27a; assay: Expression of melanin production-associated genes (RT-PCR), Rab27a; format: cell-based, mouse; conditions: B16F10 cells, 200 ng/mL α-MSH, peptide 1-160 μM, 72 hours, FIG. 3
Experimental: (§1) In detail, a mouse melanoma cell B16F10 was seeded in a 6-well plate at a density of 5×10^4 cells/well, followed by incubation for 16 hours. Thereafter, the culture medium was replaced by a medium supplemented with 2% (v/v) serum, and then 200 ng/mL of α-MSH was added thereto. Together therewith, the peptide composed of the amino acid sequence of SEQ ID NO: 1 was added at a concentration of 1 μM, 10 μM, 20 μM, 40 μM, 60 μM, 80 μM or 160 μM, respectively, followed by incubation for 72 hours. mRNAs were extracted from the cultured cells, and the extracted mRNAs were reverse transcribed using a cDNA synthesis kit & PCR pre-mix (Intron, Korea), thereby synthesizing cDNA, respectively. Thereafter, a polymerase chain reaction (PCR) was carried out using each cDNA and Rab27a, Melanophilin (Mlph), myosin VA, MITF, tyrosinase, or TRP1 primer pairs. Moreover, a control, a negative control, and a positive control were used in the same manner as in Example 2.(1), and nucleotide sequences of the primers used herein are as in Table 3 below.

[4] = system: Melanophilin (Mlph); assay: Expression of melanin production-associated genes (RT-PCR), Mlph; format: cell-based, mouse; conditions: B16F10 cells, 200 ng/mL α-MSH, peptide 1-160 μM, 72 hours, FIG. 3
Experimental: as §1

[5] = system: myosin VA; assay: Expression of melanin production-associated genes (RT-PCR), myosin VA; format: cell-based, mouse; conditions: B16F10 cells, 200 ng/mL α-MSH, peptide 1-160 μM, 72 hours, FIG. 3
Experimental: as §1

[6] = system: MITF; assay: Expression of melanin production-associated genes (RT-PCR), MITF; format: cell-based, mouse; conditions: B16F10 cells, 200 ng/mL α-MSH, peptide 1-160 μM, 72 hours, FIG. 3
Experimental: as §1

[7] = system: tyrosinase; assay: Expression of melanin production-associated genes (RT-PCR), tyrosinase; format: cell-based, mouse; conditions: B16F10 cells, 200 ng/mL α-MSH, peptide 1-160 μM, 72 hours, FIG. 3
Experimental: as §1

[8] = system: TRP1; assay: Expression of melanin production-associated genes (RT-PCR), TRP1; format: cell-based, mouse; conditions: B16F10 cells, 200 ng/mL α-MSH, peptide 1-160 μM, 72 hours, FIG. 3
Experimental: as §1

[9] = system: Mlph; assay: Expression of melanin production-associated proteins (immunoblotting), Mlph; format: cell-based, mouse; conditions: B16F10 cells, 200 ng/mL α-MSH, peptide 1-160 μM, 72 hours, FIG. 4
Experimental: (§2) In detail, a mouse melanoma cell B16F10 was seeded in a 6-well plate at a density of 5×10^4 cells/well, followed by incubation for 16 hours. Thereafter, the culture medium was replaced by a medium supplemented with 2% (v/v) serum, and then 200 ng/mL of α-MSH was added thereto. Together therewith, the peptide composed of the amino acid sequence of SEQ ID NO: 1 was added at a concentration of 1 μM, 10 μM, 20 μM, 40 μM, 60 μM, 80 μM or 160 μM, respectively, followed by incubation for 72 hours. Thereafter, the cultured cells were lysed, and then subjected to immunoblotting using antibodies (all available from santacruz biotechnology, USA) against Mlph, Rab27a, tyrosinase (TYR), or MITF. In addition, a control, a negative control, and a positive control were used in the same manner as in Example 2.(1).

[10] = system: Rab27a; assay: Expression of melanin production-associated proteins (immunoblotting), Rab27a; format: cell-based, mouse; conditions: B16F10 cells, 200 ng/mL α-MSH, peptide 1-160 μM, 72 hours, FIG. 4
Experimental: as §2

[11] = system: tyrosinase (TYR); assay: Expression of melanin production-associated proteins (immunoblotting), TYR; format: cell-based, mouse; conditions: B16F10 cells, 200 ng/mL α-MSH, peptide 1-160 μM, 72 hours, FIG. 4
Experimental: as §2

[12] = system: MITF; assay: Expression of melanin production-associated proteins (immunoblotting), MITF; format: cell-based, mouse; conditions: B16F10 cells, 200 ng/mL α-MSH, peptide 1-160 μM, 72 hours, FIG. 4
Experimental: as §2

tyrosinase activity [2]: inhibited | expression of tyrosinase gene [7]: inhibited | expression of TYR protein [11]: inhibited
Substance: PNRYP [SEQ ID NO: 1]
melanin production [1]: reduced in a concentration-dependent manner | expression of Rab27a gene [3]: inhibited | expression of Mlph gene [4]: inhibited | expression of myosin VA gene [5]: inhibited | expression of MITF gene [6]: inhibited | expression of TRP1 gene [8]: inhibited | expression of Mlph protein [9]: inhibited | expression of Rab27a protein [10]: inhibited | expression of MITF protein [12]: inhibited
